Assay [1] deals with T1, rat adrenergic α1B receptor (Rattus norvegicus, UniProt P15823).
T1 construct: rat adrenergic α1B receptor obtained from Wistar Rat liver; from tissue; host or cells: Wistar rat liver
T1 sequence (P15823 1-515): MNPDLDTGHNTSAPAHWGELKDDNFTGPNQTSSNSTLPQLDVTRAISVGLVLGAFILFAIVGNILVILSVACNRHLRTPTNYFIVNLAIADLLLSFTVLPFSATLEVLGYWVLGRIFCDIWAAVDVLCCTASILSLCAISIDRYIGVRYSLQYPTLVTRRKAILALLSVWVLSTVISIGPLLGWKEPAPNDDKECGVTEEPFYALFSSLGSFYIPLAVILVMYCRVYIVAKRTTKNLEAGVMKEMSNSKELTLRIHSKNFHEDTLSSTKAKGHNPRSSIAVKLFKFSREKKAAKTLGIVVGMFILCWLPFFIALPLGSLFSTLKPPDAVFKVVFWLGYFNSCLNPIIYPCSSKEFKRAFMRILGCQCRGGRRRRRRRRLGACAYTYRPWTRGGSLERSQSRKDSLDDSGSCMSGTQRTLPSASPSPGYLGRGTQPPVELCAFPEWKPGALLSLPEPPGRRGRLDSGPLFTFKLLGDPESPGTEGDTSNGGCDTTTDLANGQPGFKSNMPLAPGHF
The assay can be described thus: Radioligand binding, adrenergic α1B (Protocol Group A). To be noted: 0.1 μM compound, [3H]Prazosin; for percent inhibition of specific binding, Adrenergic α1B: 0.1 µM; for inhibition at 0.1 µM: read-out: percent inhibition of specific binding, Adrenergic α1B. Here is the method: To evaluate in radioligand binding assays the activity of compounds of the invention, rat adrenergic α1B receptor obtained from Wistar Rat liver (Garcia-S'ainz, J. et al, Biochem. Biophys. Res. Commun. 186:760, 1992; Michel, A. et al, Br. J. Pharmacol. 98:883, 1989) in a modified Tris-HCl buffer (50 mM Tris-HCl buffer, pH 7.4, 0.5 mM EDTA) was used. Compounds of the invention were incubated with 0.25 nM [^3H]Prazosin for 60 min at 25° C. Non-specific binding was estimated in the presence of 10 μM phentolamine. Receptor proteins were filtered and washed, the filters were then counted to determine [^3H]Prazosin specifically bound. Compounds were screened at 1 μM or lower, using 1% DMSO as vehicle. Compounds of the invention were tested in this biochemical assay and percent inhibition of specific binding was determined. Biochemical assay results are presented as the percent inhibition of specific binding in Table B1a.

Assay [2] has as its target T2, Human adrenergic α2B receptor (Homo sapiens, UniProt P18089).
T2 sequence (P18089 1-450): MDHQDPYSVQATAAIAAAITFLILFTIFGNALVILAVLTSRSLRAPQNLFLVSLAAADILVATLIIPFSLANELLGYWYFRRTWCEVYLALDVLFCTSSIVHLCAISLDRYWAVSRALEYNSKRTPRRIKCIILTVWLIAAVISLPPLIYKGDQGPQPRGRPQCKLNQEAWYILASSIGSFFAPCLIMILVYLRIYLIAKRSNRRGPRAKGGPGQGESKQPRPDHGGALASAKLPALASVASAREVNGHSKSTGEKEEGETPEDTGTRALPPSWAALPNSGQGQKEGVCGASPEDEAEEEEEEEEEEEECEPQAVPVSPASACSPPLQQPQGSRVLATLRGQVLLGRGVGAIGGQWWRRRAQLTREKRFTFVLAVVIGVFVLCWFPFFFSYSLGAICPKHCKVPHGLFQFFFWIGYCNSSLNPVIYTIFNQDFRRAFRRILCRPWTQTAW
Put plainly: Radioligand binding, adrenergic α2B (Protocol Group A). The arrangement: expressed in transfected cells; host or cells: CHO-K1. The following applies: 0.03 μM compound, [3H]Rauwolscine; for percent inhibition of specific binding, Adrenergic α2B: 0.03 µM; for inhibition at 0.03 µM: read-out: percent inhibition of specific binding, Adrenergic α2B. Here is the method:
To evaluate in radioligand binding assays the activity of compounds of the invention, human recombinant adrenergic α2B receptor expressed in Chinese hamster ovary (CHO) K1 cells (Uhlen, S. et al, Eur. J. Pharmacol. 343(1):93, 1998) in a modified Tris-HCl buffer (50 mM Tris-HCl, pH 7.4, 12.5 mM MgCl2, 1 mM EDTA, 0.2% BSA) was used. Compounds of the invention were incubated with 2.5 nM [3H]Rauwolscine for 60 min at 25° C. Non-specific binding was estimated in the presence of 10 μM Prazosin. Receptor proteins were filtered and washed, the filters were then counted to determine [3H]Rauwolscine specifically bound. Compounds were screened at 1 μM or lower, using 1% DMSO as vehicle. Compounds of the invention were tested in this biochemical assay and percent inhibition of specific binding was determined. Biochemical assay results are presented as the percent inhibition of specific binding in Table B1a.

Assay [3] has as its target T3, Human adrenergic α2A receptor (Homo sapiens, UniProt P08913).
T3 sequence (P08913 1-465): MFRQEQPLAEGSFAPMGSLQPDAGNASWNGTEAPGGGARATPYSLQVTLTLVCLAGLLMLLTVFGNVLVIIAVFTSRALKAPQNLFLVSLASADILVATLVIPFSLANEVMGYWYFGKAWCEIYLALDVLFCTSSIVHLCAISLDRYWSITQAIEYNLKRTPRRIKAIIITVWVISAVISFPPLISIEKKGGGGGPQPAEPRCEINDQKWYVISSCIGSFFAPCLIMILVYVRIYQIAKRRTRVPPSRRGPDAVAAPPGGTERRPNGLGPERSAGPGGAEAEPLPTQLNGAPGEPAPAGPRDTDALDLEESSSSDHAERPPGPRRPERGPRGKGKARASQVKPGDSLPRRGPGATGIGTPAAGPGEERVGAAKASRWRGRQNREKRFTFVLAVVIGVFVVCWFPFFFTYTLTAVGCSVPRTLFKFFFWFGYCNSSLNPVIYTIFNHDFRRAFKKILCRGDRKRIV
Put plainly: Radioligand binding, adrenergic α2A (Protocol Group A). The arrangement: expressed in transfected cells; host or cells: insect Sf9 cells. To be noted: 0.1 μM compound; for percent inhibition of specific binding, Adrenergic α2A: [3H]MK-912, 0.1 µM; for inhibition at 0.1 µM: [3H]MK-912, read-out: percent inhibition of specific binding, Adrenergic α2A. Here is the method: To evaluate in radioligand binding assays the activity of compounds of the invention, human recombinant adrenergic α2A receptor expressed in insect Sf9 cells (Uhlen, S. et al, J. Pharmacol. Exp. Ther. 271:1558, 1994) in a modified Tris-HCl buffer (50 mM Tris-HCl, pH 7.4, 12.5 mM MgCl2, 2 mM EDTA) was used. Compounds of invention were incubated with 1 nM [^3H]MK-912 for 60 min at 25° C. MK912 is (2S-trans)-1,3,4,5′,6,6′,7,12b-octahydro-1′,3′-dimethyl-spiro[2H-benzofuro[2,3-a]quinolizine-2,4′(1′H)-pyrimidin]-2′(3′H)-one hydrochloride. Non-specific binding was estimated in the presence of 10 μM WB-4101 (2-(2,6-Dimethoxyphenoxyethyl)aminomethyl-1,4-benzodioxane hydrochloride). Receptor proteins were filtered and washed, the filters were then counted to determine [^3H]MK-912 specifically bound. Compounds were screened at 1 μM or lower, using 1% DMSO as vehicle. Compounds of the invention were tested in this biochemical assay and percent inhibition of specific binding was determined. Biochemical assay results are presented as the percent inhibition of specific binding in Table B1a.

By inhibition is commonly meant the drop in the measured response relative to a control, in per cent.

With `c1cncc(CCn2c3c(c4ccccc42)C2CCCN2CC3)c1` (single isomer, unassigned) [2a], the “percent inhibition of specific binding, Adrenergic α1B” value (from here on “percent inhibition … Adrenergic α1B”) in assay [1] was 28%. Moreover, the “percent inhibition of specific binding, Adrenergic α2B” value (from here on “percent inhibition … Adrenergic α2B”) in assay [2] came out at 102%. The “percent inhibition of specific binding, Adrenergic α2A” value (from here on “percent inhibition … Adrenergic α2A”) in assay [3] turned out to be 31%.
Turning to `c1cncc(CCn2c3c(c4ccccc42)C2CCCN2CC3)c1` (single isomer, unassigned) [2b], the “percent inhibition … Adrenergic α1B” value in assay [1] is on record as 4%. Further, the “percent inhibition … Adrenergic α2B” value in assay [2] was determined as 1%. Besides, the “percent inhibition … Adrenergic α2A” value in assay [3] is listed as 13%.
With `Cc1ccc2c(c1)c1c(n2CC(OC(=O)N2CCCC2)c2ccncc2)CCN(C)C1` (single isomer, unassigned) [4a], in assay [1], the “percent inhibition … Adrenergic α1B” value is on record as 11%. Also, the “percent inhibition … Adrenergic α2B” value in assay [2] was 39%. Moreover, in assay [3], the inhibition at 0.1 µM worked out at 21%.
Turning to `Cc1ccc(C(F)Cn2c3c(c4cccnc42)C2CCCN2CC3)cn1` (single isomer, unassigned) [10a], the “percent inhibition … Adrenergic α1B” value in assay [1] is listed as −3%. Moreover, the “percent inhibition … Adrenergic α2B” value in assay [2] amounted to 4%. In addition, in assay [3], the “percent inhibition … Adrenergic α2A” value turned out to be 0%.
Regarding `Cc1ccc(C(F)Cn2c3c(c4cccnc42)C2CCCN2CC3)cn1` (single isomer, unassigned) [10b], the “percent inhibition … Adrenergic α1B” value in assay [1] is reported as −5%. For the same molecule, in assay [2], the “percent inhibition … Adrenergic α2B” value is on record as 16%. Also, the “percent inhibition … Adrenergic α2A” value in assay [3] is −1%.
Regarding `Cc1ccc2c(c1)c1c(n2CC(C)(O)c2ccc(F)nc2)CCN2CCCC12` (stereo not drawn) [6b], the inhibition at 0.1 µM was found to be 61% in assay [1] and 29% in assay [3]. In addition, the inhibition at 0.03 µM in assay [2] stood at 93%.
The matching figures for `Cc1ccc2c(c1)c1c(n2CCc2cncc(S(C)(=O)=O)c2)CCN(C)C1` [Compound No. 1, 2,8-dimethyl-5-(2-(5-(methylsulfonyl)pyridin-3-yl)ethyl)-2,3,4,5-tetrahydro-1H-pyrido[4,3-b]indole]: 18%, 3% and 64%.
With `Cc1ccc2c(c1)c1c(n2/C=C/c2ccncc2)CCN2CCCC12` (stereo not drawn) [Compound No. 7, (E)-10-methyl-7-(2-(pyridin-4-yl)vinyl)-2,3,5,6,7,11c-hexahydro-1H-indolizino[7,8-b]indole], the inhibition at 0.1 µM in assay [1] worked out at 99%; in assay [3], 93%. In addition, the inhibition at 0.03 µM in assay [2] was determined as 108%.
On the same counts, the results for `Cc1ccc2c(c1)c1c(n2CC(OCCCC(=O)O)c2ccncc2)CCN(C)C1` (stereo not drawn) [compound 3, 4-(2-(2,8-dimethyl-3,4-dihydro-1H-pyrido[4,3-b]indol-5 (2H)-yl)-1-(pyridin-4-yl)ethoxy)butanoic acid] are -5%, 5% and 7%.
Consider `Cc1ccc2c(c1)c1c(n2CC(OC(=O)N2CCCC2)c2ccncc2)CCN(C)C1` (stereo not drawn) [compound 4, 2-(2,8-dimethyl-3,4-dihydro-1H-pyrido[4,3-b]indol-5(2H)-yl)-1-(pyridin-4-yl)ethyl pyrrolidine-1-carboxylate], for which the “percent inhibition … Adrenergic α1B” value in assay [1] amounted to 27%. Further, the “percent inhibition … Adrenergic α2B” value in assay [2] came to 78%. Also, in assay [3], the “percent inhibition … Adrenergic α2A” value was 33%.
Consider `Cc1ccc2c(c1)c1c(n2CC(OC(=O)N2CCN(C)CC2)c2ccncc2)CCN(C)C1` (stereo not drawn) [compound 5, 2-(2,8-dimethyl-3,4-dihydro-1H-pyrido[4,3-b]indol-5 (2H)-yl)-1-(pyridin-4-yl)ethyl 4-methylpiperazine-1-carboxylate], for which the inhibition at 0.1 µM stood at 5% in assay [1] and 10% in assay [3]. Moreover, the inhibition at 0.03 µM in assay [2] was 13%.
The matching figures for `Cc1ccc2c(c1)c1c(n2CC(OC(N)=O)c2ccncc2)CCN(C)C1` (stereo not drawn) [compound 8, 2-(2,8-dimethyl-3,4-dihydro-1H-pyrido[4,3-b]indol-5 (2H)-yl)-1-(pyridin-4-yl)ethyl carbamate]: 1%, 11% and 42%.
Turning to `Cc1ccc2c(c1)c1c(n2C(CC(C)(C)C)C(=O)c2ccncc2)CCN(C)C1` (stereo not drawn) [compound 9, 2-(2,8-dimethyl-3,4-dihydro-1H-pyrido[4,3-b]indol-5 (2H)-yl)-4,4-dimethyl-1-(pyridin-4-yl)pentan-1-one], the inhibition at 0.1 µM turned out to be 77% in assay [1] and 85% in assay [3]. Further, the inhibition at 0.03 µM in assay [2] is 107%.

The values are drawn from US20150315188A1, “COMPOUNDS AND METHODS FOR TREATMENT OF HYPERTENSION” (MEDIVATION TECHNOLOGIES, INC., priority 2012, published 2015).
